Measured values reported in patent US20100204467A1, “LANTHANIDE (III) ION COMPLEXING COMPOUNDS, LUMINESCENT LANTHANIDE (III) ION COMPLEXES AND USE THEREOF AS FLUORESCENT LABELS” (CIS BIO INTERNATIONAL, priority 2007, published 2010).

Experiments:
[1] = Ligand reduction potential; type: physicochemical; details: vs n.h.e., 298K, 0.1 M NBu4ClO4, MeCN
Text: The quenching process with urate is believed to involve an intermediate exciplex, involving a short-lived bonding π-π interaction. This is disfavoured as the sensitising chromophore becomes less susceptible to accept electron density and is reflected in the ligand reduction potential. For compound (7), this was −1.52 V (vs n.h.e., 298K, 0.1 M NBu4ClO4, MeCN), which compares to −1.07 V for the cyclohexyl tetraazatriphenylene and −1.60 V for the 1-aza-xanthone (2). Terbium complexes of L^1 and L^2 resisted urate and ascorbate quenching more effectively than the comparator complexes.

[2] = Absorption spectrum of Tb(III) complexes; type: physicochemical; details: for γmax: absorption, Tb(III) complexes; for ε: molar extinction coefficient
Text: (§1) Absorption, emission and triplet energy data for these complexes are collated in Table 1.
The absorption spectrum of [TbL^1]

[3] = Terbium emission lifetime / decay rate constants in H2O and D2O; type: physicochemical; details: lifetime ±10%
Text: as §1

[4] = Emission quantum yield; type: physicochemical; details: quantum yields ±15%
Text: as §1

[5] = Triplet energy measured on Gd analogues in frozen glass (77K); type: physicochemical; details: Gd analogues in frozen glass of Et2O/isopentane/ethanol or EtOH/MeOH (2:1)
[6] = Stern-Volmer excited state quenching by urate; type: physicochemical; details: pH 7.4, 0.1 M HEPES, 298K
Text: (§2) A key issue in assessing the utility of such luminescent complexes for intracellular application is their sensitivity towards quenching by endogenous electron-rich species (e.g. urate/ascorbate) either when the complexes are free or protein bound. Accordingly, the Stern-Volmer quenching constants (KSv^−1/mM) defining their relative sensitivity to quenching can be assessed comparatively, (Table 2).

[7] = Stern-Volmer excited state quenching by ascorbate; type: physicochemical; details: pH 7.4, 0.1 M HEPES, 298K
Text: as §2

[8] = Stern-Volmer excited state quenching by iodide; type: physicochemical; details: pH 7.4, 0.1 M HEPES, 298K
Text: as §2

[9] = target: human serum albumin (Homo sapiens, UniProt P02768); assay: Emission lifetime in the presence of human serum albumin, urate and ascorbate; details: 0.4 mM human serum albumin, 0.1 mM sodium urate, 0.2 mM ascorbate, pH 7.4, 298K, 0.1M HEPES
Method: In the presence of 0.4 mM human serum albumin, 0.1 mM sodium urate and 0.2 mM ascorbate, (pH 7.4, 298K, 0.1M HEPES), the emission lifetime of [TbL^2]^3+ was within 10% of its value in water, i.e. 2.1 ms, compared to 0.7 ms and 0.5 ms for [TbL^6]^3+ and [TbL^4]^3+ respectively under the same conditions.

[10] = tested on: Chinese hamster ovarian cells; details: observed previously under the same standard conditions; cited from earlier work
[11] = first of two columns headed kD2O^Tb
[12] = second of two columns headed kD2O^Tb

Chain of human serum albumin (P02768 25-609): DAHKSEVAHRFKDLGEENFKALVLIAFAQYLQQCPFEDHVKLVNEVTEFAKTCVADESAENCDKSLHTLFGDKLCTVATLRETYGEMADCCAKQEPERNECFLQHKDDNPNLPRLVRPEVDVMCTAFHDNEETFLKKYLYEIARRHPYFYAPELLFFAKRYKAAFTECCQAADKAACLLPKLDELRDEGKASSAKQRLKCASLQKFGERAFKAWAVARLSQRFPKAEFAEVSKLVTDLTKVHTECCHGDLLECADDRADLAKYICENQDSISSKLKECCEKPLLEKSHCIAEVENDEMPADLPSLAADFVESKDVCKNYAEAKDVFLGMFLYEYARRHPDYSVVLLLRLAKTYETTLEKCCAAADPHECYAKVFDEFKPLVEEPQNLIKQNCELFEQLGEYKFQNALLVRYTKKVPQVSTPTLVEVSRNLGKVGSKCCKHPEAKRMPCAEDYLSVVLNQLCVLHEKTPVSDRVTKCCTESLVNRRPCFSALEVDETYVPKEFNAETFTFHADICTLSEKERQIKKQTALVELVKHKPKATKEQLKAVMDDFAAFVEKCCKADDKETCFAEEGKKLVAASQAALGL

CC(C)(C)c1ccc2oc3cccnc3c(=O)c2c1 [Compound 2, 7-Tert-Butyl-1-Azaxanthone]
ligand reduction potential [1]: −1.60 V

Cc1ccn(-c2ccc3c(=O)c4cc(C(C)(C)C)ccc4oc3n2)n1 [Compound 7, 7-Tert-Butyl-2-(N-3′-Methylpyrazole)-1-Azaxanthone]
ligand reduction potential [1]: −1.52 V

CC(NC(=O)CN1CCN(CC(=O)NC(C)c2ccccc2)CCN(Cc2ccc3c(=O)c4cc(C(C)(C)C)ccc4oc3n2)CCN(CC(=O)NC(C)c2ccccc2)CC1)c1ccccc1.[Tb+3] (stereo not shown) [[TbL^4]^3+]
γmax [2]: 335 nm | ε [2]: 6,900 M^−1 cm^−1 | kD2O^Tb [3, 11]: 0.61 (ms)^−1 | kD2O^Tb [3, 12]: 0.35 (ms)^−1 | nem^Tb (H2O) [4]: 37% | ET^Gd [5]: 24,800 cm^−1 | Ksv^−1 (urate) [6]: 0.04 mM | Ksv^−1 ascorbate [7]: 0.37 mM | Ksv^−1 (I^−) [8]: 9.2 mM | emission lifetime [9]: 0.5 ms | nuclear localisation [10]: tendency for nuclear localisation

CC(NC(=O)CN1CCN(CC(=O)NC(C)c2ccccc2)CCN(Cc2ccc3c(n2)c2ncccc2c2nc4c(nc32)CCCC4)CCN(CC(=O)NC(C)c2ccccc2)CC1)c1ccccc1.[Tb+3] (stereo not shown) [[TbL^6]^3+]
γmax [2]: 348 nm | ε [2]: 8,300 M^−1 cm^−1 | kD2O^Tb [3, 11]: 0.64 (ms)^−1 | kD2O^Tb [3, 12]: 0.58 (ms)^−1 | nem^Tb (H2O) [4]: 40% | ET^Gd [5]: 23,800 cm^−1 | emission lifetime [9]: 0.7 ms | nuclear localisation [10]: tendency for nuclear localisation

cyclohexyl tetraazatriphenylene [reference compound]
ligand reduction potential [1]: −1.07 V
